From patent US9399637B2, “Substituted heteroaryl compounds and methods of use” (Calitor Sciences, LLC, priority 2014, dated 2016)

What was measured:
FLT3 (h) = target: T1, FLT3 (h) (Homo sapiens, UniProt P36888); assay: FLT3 kinase assay; format: biochemical
T1 construct: purchased Millipore UK Ltd (assays run there as a service)
T1 sequence (P36888 27-993): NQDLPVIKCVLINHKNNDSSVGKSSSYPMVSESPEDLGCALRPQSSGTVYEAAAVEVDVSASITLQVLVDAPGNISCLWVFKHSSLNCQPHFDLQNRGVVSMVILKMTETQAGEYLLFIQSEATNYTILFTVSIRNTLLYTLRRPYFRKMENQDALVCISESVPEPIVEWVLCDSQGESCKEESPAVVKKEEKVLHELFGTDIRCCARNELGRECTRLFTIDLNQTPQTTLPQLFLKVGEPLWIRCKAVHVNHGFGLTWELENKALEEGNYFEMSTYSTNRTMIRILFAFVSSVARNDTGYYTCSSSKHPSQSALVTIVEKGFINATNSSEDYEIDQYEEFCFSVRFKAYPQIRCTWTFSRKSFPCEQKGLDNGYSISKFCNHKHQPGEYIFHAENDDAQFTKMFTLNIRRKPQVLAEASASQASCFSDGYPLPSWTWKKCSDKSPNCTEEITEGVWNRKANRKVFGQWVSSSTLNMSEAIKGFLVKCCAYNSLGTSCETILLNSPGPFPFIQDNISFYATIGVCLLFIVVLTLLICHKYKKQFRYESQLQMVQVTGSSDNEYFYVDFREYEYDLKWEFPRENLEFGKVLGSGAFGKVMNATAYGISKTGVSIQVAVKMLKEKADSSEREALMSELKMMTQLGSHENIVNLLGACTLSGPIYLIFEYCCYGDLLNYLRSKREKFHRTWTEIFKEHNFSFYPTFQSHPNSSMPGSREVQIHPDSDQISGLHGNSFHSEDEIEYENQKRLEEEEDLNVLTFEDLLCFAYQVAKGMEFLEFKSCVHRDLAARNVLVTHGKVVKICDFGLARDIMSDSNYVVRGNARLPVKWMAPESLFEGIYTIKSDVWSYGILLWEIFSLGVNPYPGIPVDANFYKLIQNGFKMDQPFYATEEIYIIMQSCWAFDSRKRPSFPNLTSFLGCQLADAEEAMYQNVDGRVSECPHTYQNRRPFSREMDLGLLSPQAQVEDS
Description: Kinase assays can be performed by measurement of incorporation of γ-^33P ATP into immobilized myelin basic protein (MBP). High binding white 384 well plates (Greiner) are coated with MBP (Sigma #M-1891) by incubation of 60 μL/well of 20 μg/mL MBP in Tris-buffered saline (TBS; 50 mM Tris pH 8.0, 138 mM NaCl, 2.7 mM KCl) for 24 h at 4° C. Plates are washed 3× with 100 μL TBS. Kinase reactions are carried out in a total volume of 34 μL in kinase buffer (5 mM Hepes pH 7.6, 15 mM NaCl, 0.01% bovine gamma globulin (Sigma #I-5506), 10 mM MgCl2, 1 mM DTT, 0.02% TritonX-100). Compound dilutions are performed in DMSO and added to assay wells to a final DMSO concentration of 1%. Each data point is measured in duplicate, and at least two duplicate assays are performed for each individual compound determination. Enzyme is added to final concentrations of 10 nM or 20 nM, for example. A mixture of unlabeled ATP and γ-^33P ATP is added to start the reaction (2×10^6 cpm of γ-^33P ATP per well (3000 Ci/mmole) and 10 μM unlabeled ATP, typically. The reactions are carried out for 1 h at room temperature with shaking Plates are washed 7× with TBS, followed by the addition of 50 μL/well scintillation fluid (Wallac). Plates are read using a Wallac Trilux counter. This is only one format of such assays; various other formats are possible, as known to one skilled in the art. […]

[1] = Compound stability in human liver microsomes; format: in vitro ADME; details: pH 7.4; for half-life at 5 μM: human liver microsomes 0.5 mg protein/mL, compound 5 μM, NADPH, 37° C., read-out: Human T1/2; for CLint scaled at 5 μM: human liver microsomes, in vivo CLint extrapolated
Description: (§1) Human or rat liver microsomes incubations were conducted in duplicate in polypropylene tubes. The typical incubation mixtures consisted of human or rat liver microsomes (0.5 mg protein/mL), compounds of interest (5 μM) and NADPH (1.0 mM) in a total volume of 200 μL potassium phosphate buffer (PBS, 100 mM, pH 7.4). Compounds were dissolved in DMSO and diluted with PBS such that the final concentration of DMSO was 0.05%. The enzymatic reactions were commenced with the addition of […] after a 3-min preincubation and incubated in a water bath open to the air at 37° C. Reactions were terminated at various time points (0, 5, 10, 15, 30, 60 min) by adding equal volume of ice-cold acetonitrile. The samples were stored at […] until LC/MS/MS assays.
(§2) The concentrations of compounds in the incubation mixtures of human or rat liver microsomes were determined by a LC/MS/MS method. The ranges of the linearity in the concentration range were determined for each tested compounds.
(§3) A parallel incubation was performed using denatured microsomes as the negative control, and reactions were terminated at various time points (0, 15, 60 min) after incubation at 37° C.
(§4) Dextromethorphan (70 μM) was selected as the positive control, and reactions were terminated at various time points (0, 5, 10, 15, 30, 60 min) after incubation at 37° C. Both positive and negative control samples were included in each assay to ensure the integrity of the microsomal incubation system.
(§5) The concentrations of compounds in human or rat liver microsome incubations were plotted as a percentage of the relevant zero time point control for each reaction. The in vivo CLint were extrapolated (ref.: Naritomi, Y.; Terashita, S.; Kimura, S.; Suzuki, A.; Kagayama, A.; and Sugiyama, Y.; Prediction of human hepatic clearance from in vivo animal experiments and in vitro metabolic studies with liver microsomes from animals and humans. Drug Metab. Dispos., 2001, 29: 1316-1324).

[2] = Compound stability in rat liver microsomes; format: in vitro ADME; details: pH 7.4; for half-life at 5 μM: rat liver microsomes 0.5 mg protein/mL, compound 5 μM, NADPH, 37° C., read-out: Rat T1/2; for CLint scaled at 5 μM: rat liver microsomes, in vivo CLint extrapolated
Description: as §1, §2, §3, §4, §5

JAK2 (h) = target: T2, JAK2 (h) (Homo sapiens, UniProt O60674); assay: JAK2 kinase assay; format: biochemical
T2 construct: purchased Millipore UK Ltd (assays run there as a service)
T2 sequence (O60674 whole entry): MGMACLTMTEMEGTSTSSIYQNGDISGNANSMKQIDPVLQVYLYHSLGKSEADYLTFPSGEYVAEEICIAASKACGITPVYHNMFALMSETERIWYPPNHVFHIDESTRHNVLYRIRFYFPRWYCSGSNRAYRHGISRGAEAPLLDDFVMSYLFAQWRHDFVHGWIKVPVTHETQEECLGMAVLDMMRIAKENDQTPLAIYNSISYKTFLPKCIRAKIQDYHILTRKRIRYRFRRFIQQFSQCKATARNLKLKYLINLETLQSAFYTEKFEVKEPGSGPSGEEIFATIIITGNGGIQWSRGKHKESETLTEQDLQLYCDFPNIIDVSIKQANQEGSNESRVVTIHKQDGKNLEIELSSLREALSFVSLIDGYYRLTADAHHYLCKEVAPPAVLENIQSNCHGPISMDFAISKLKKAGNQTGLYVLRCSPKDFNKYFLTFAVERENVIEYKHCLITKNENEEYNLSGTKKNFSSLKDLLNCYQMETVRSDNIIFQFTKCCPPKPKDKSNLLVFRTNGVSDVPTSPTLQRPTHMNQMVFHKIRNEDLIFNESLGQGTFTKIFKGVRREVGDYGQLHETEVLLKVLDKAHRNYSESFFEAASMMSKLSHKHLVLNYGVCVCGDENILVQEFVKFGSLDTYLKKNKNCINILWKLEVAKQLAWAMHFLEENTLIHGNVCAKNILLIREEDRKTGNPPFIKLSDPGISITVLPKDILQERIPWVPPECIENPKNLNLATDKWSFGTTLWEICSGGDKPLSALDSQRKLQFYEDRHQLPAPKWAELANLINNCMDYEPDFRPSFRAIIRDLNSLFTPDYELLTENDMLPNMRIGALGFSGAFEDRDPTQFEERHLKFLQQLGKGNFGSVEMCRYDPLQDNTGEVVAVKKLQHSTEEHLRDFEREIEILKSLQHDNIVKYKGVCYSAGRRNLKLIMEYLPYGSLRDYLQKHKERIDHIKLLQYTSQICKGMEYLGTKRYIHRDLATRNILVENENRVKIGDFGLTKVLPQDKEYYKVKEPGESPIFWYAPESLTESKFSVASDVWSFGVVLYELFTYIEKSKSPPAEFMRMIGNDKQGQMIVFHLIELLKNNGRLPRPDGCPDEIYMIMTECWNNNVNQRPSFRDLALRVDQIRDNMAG
Description: Kinase assays can be performed by measurement of incorporation of γ-^33P ATP into immobilized myelin basic protein (MBP). High binding white 384 well plates (Greiner) are coated with MBP (Sigma #M-1891) by incubation of 60 μL/well of 20 μg/mL MBP in Tris-buffered saline (TBS; 50 mM Tris pH 8.0, 138 mM NaCl, 2.7 mM KCl) for 24 h at 4° C. Plates are washed 3× with 100 μL TBS. Kinase reactions are carried out in a total volume of 34 μL in kinase buffer (5 mM Hepes pH 7.6, 15 mM NaCl, 0.01% bovine gamma globulin (Sigma #I-5506), 10 mM MgCl2, 1 mM DTT, 0.02% TritonX-100). Compound dilutions are performed in DMSO and added to assay wells to a final DMSO concentration of 1%. Each data point is measured in duplicate, and at least two duplicate assays are performed for each individual compound determination. Enzyme is added to final concentrations of 10 nM or 20 nM, for example. A mixture of unlabeled ATP and γ-^33P ATP is added to start the reaction (2×10^6 cpm of γ-^33P ATP per well (3000 Ci/mmole) and 10 μM unlabeled ATP, typically. The reactions are carried out for 1 h at room temperature with shaking Plates are washed 7× with TBS, followed by the addition of 50 μL/well scintillation fluid (Wallac). Plates are read using a Wallac Trilux counter. This is only one format of such assays; various other formats are possible, as known to one skilled in the art.
The above assay procedure can be used to determine the IC50 for inhibition and/or the inhibition constant, Ki. The IC50 is defined as the concentration of compound required to reduce the enzyme activity by 50% under the condition of the assay. The IC50 value is estimated by preparing a 10 point curve using a ½ log dilution series (for example, a typical curve may be prepared using the following compound concentrations: 3 μM, 1 μM, 0.3 μM, 0.1 μM, 0.03 μM, 0.01 μM, 0.003 μM, 0.001 μM, 0.0003 μM and 0 μM).
(specific activity approx. 500 cpm/pmol, concentration as required).
The kinase assays described herein were performed at Millipore UK Ltd, Dundee Technology Park, Dundee DD2 1SW, UK.

Row | SMILES | IC50 (FLT3 (h)) [nM] | half-life at 5 μM [1] [min] | CLint scaled at 5 μM [1] [mL/min/kg] | half-life at 5 μM [2] [min] | CLint scaled at 5 μM [2] [mL/min/kg] | IC50 (JAK2 (h)) [nM]
1 | Cc1c2ccc(Nc3ncc(Cl)c(NC4CC5CN(C(=O)CC#N)CC5C4)n3)cc2nn1C (stereo not drawn) [Ex. 4, 3-(5-((5-chloro-2-((2,3-dimethyl-2H-indazol-6-yl)amino)pyrimidin-4-yl)amino)hexahydrocyclopenta[c]pyrrol-2(1H)-yl)-3-oxopropanenitrile] | 545 | 14.3 | 122 | 25.3 | 98.3 | 9
2 | CC(=O)N1CCC2(CCC(Nc3nc(Nc4ccc5c(C)n(C)nc5c4)ncc3Cl)CC2)CC1 [Ex. 7, 1-(9-((5-chloro-2-((2,3-dimethyl-2H-indazol-6-yl)amino)pyrimidin-4-yl)amino)-3-azaspiro[5.5]undecan-3-yl)ethanone] | 3 | 42.9 | 40.5 | 29.3 | 84.8 | 2
